Values joined by “and” are separate entries in the source; they are usually repeats but may differ in a detail not shown here. Equal values may be shown once. Read-outs that look alike come from different tables or passages of the source.
How the values were obtained:
SARS2 = format: cell-based, SARS-CoV-2; conditions: for Percentage Inhibition Average 1 μM / Screening data (Relative infection to DMSO controls) Average 1 μM: SARS2, 1 μM; for Screening data (Relative infection to DMSO controls) Average 1 μM / Screening data (Relative infection to DMSO controls) Average 5 μM / Screening data (Relative infection to DMSO controls) Average 10 μM / Screening data (Relative infection to DMSO controls) Average 25 μM / Screening data (Relative infection to DMSO controls) Average 50 μM / Average (relative infection to DMSO over the 5 tested concentrations): 100=DMSO control; for Percentage Inhibition Average 5 μM / Screening data (Relative infection to DMSO controls) Average 5 μM: SARS2, 5 μM; for Percentage Inhibition Average 10 μM / Screening data (Relative infection to DMSO controls) Average 10 μM: SARS2, 10 μM; for Percentage Inhibition Average 25 μM / Screening data (Relative infection to DMSO controls) Average 25 μM: SARS2, 25 μM; for Percentage Inhibition Average 50 μM / Screening data (Relative infection to DMSO controls) Average 50 μM: SARS2, 50 μM; for Average (relative infection to DMSO over the 5 tested concentrations): SARS2, average over 1 to 50 uM
cells (nuclei count) = conditions: for Relative cell count to DMSO controls, Average 1 μM / Relative cell count to DMSO controls, Average 5 μM / Relative cell count to DMSO controls, Average 10 μM / Relative cell count to DMSO controls, Average 25 μM / Relative cell count to DMSO controls, Average 50 μM: toxicity data, 100=DMSO control; for Relative cell count to DMSO controls, Average (for correlation analysis): average value over the 5 tested concentrations (1 to 50 uM)
[1] = Exp 1 (SMW475), 1 uM, single well
[2] = Exp 1 (SMW475), 5 uM, single well
[3] = Exp 1 (SMW475), 10 uM, single well
[4] = Exp 1 (SMW475), 25 uM, single well
[5] = Exp 1 (SMW475), 50 uM, single well
[6] = Exp 2 (SMW477), 1 uM, single well
[7] = Exp 2 (SMW477), 5 uM, single well
[8] = Exp 2 (SMW477), 10 uM, single well
[9] = Exp 2 (SMW477), 25 uM, single well
[10] = Exp 2 (SMW477), 50 uM, single well
[11] = average of Exp 1-3 (SMW475, SMW477, SMW478), n 9, 1 uM
[12] = average of Exp 1-3 (SMW475, SMW477, SMW478), n 9, 5 uM
[13] = average of Exp 1-3 (SMW475, SMW477, SMW478), n 9, 10 uM
[14] = average of Exp 1-3 (SMW475, SMW477, SMW478), n 9, 25 uM
[15] = average of Exp 1-3 (SMW475, SMW477, SMW478), n 9, 50 uM

CCN(CC)CCN(Cc1ccccc1)Cc1ccc(C)o1 [SILCS23]
Infection Data, Average, Mean (SARS2; Average of Exp 1-3, n 9, 1 uM): 83.26% | Infection Data, Average, Mean (SARS2; Average of Exp 1-3, n 9, 5 uM): 72.94% | Infection Data, Average, Mean (SARS2; Average of Exp 1-3, n 9, 10 uM): 71.95% | Infection Data, Average, Mean (SARS2; Average of Exp 1-3, n 9, 25 uM): 42.51% | Infection Data, Average, Mean (SARS2; Average of Exp 1-3, n 9, 50 uM): 25.76% | Percentage Infection Relative to Appropriate DMSO Control with Avg Background Subtraction (SARS2; [1]): 84.61% and 99.83% and 96.53% | Percentage Infection Relative to Appropriate DMSO Control with Avg Background Subtraction (SARS2; [2]): 76.20% and 84.17% and 85.48% | Percentage Infection Relative to Appropriate DMSO Control with Avg Background Subtraction (SARS2; [3]): 57.63% and 66.75% and 71.82% | Percentage Infection Relative to Appropriate DMSO Control with Avg Background Subtraction (SARS2; [4]): 23.73% and 16.03% and 21.54% | Percentage Infection Relative to Appropriate DMSO Control with Avg Background Subtraction (SARS2; [5]): 11.05% and 12.93% and 12.05% | Percentage Infection Relative to Appropriate DMSO Control with Avg Background Subtraction (SARS2; [6]): 76.88% and 82.87% and 95.55% | Percentage Infection Relative to Appropriate DMSO Control with Avg Background Subtraction (SARS2; [7]): 77.18% and 66.56% and 59.07% | Percentage Infection Relative to Appropriate DMSO Control with Avg Background Subtraction (SARS2; [8]): 81.53% and 45.87% and 61.92% | Percentage Infection Relative to Appropriate DMSO Control with Avg Background Subtraction (SARS2; [9]): 42.76% and 36.42% and 27.04% | Percentage Infection Relative to Appropriate DMSO Control with Avg Background Subtraction (SARS2; [10]): 22.07% and 19.29% and 19.84% | Percentage Infection Relative to Appropriate DMSO Control with Avg Background Subtraction (SARS2; Exp 3 (SMW478), 1 uM, single well): 74.83% and 73.82% and 64.40% | Percentage Infection Relative to Appropriate DMSO Control with Avg Background Subtraction (SARS2; Exp 3 (SMW478), 5 uM, single well): 80.66% and 70.90% and 56.23% | Percentage Infection Relative to Appropriate DMSO Control with Avg Background Subtraction (SARS2; Exp 3 (SMW478), 10 uM, single well): 84.08% and 95.62% and 82.31% | Percentage Infection Relative to Appropriate DMSO Control with Avg Background Subtraction (SARS2; Exp 3 (SMW478), 25 uM, single well): 59.17% and 74.77% and 81.13% | Percentage Infection Relative to Appropriate DMSO Control with Avg Background Subtraction (SARS2; Exp 3 (SMW478), 50 uM, single well): 42.28% and 47.99% and 44.36% | Percentage Inhibition Average 1 μM (SARS2): 16.74% | Screening data (Relative infection to DMSO controls) Average 1 μM (SARS2): 83.26 | Percentage Inhibition Average 5 μM (SARS2): 27.06% | Screening data (Relative infection to DMSO controls) Average 5 μM (SARS2): 72.94 | Percentage Inhibition Average 10 μM (SARS2): 28.05% | Screening data (Relative infection to DMSO controls) Average 10 μM (SARS2): 71.95 | Percentage Inhibition Average 25 μM (SARS2): 57.49% | Screening data (Relative infection to DMSO controls) Average 25 μM (SARS2): 42.51 | Percentage Inhibition Average 50 μM (SARS2): 74.24% | Screening data (Relative infection to DMSO controls) Average 50 μM (SARS2): 25.76 | Average (relative infection to DMSO over the 5 tested concentrations) (SARS2): 59.28 | Relative cell count to DMSO controls, Average 1 μM (cells (nuclei count)): 123.69 | Relative cell count to DMSO controls, Average 5 μM (cells (nuclei count)): 129.2 | Relative cell count to DMSO controls, Average 10 μM (cells (nuclei count)): 125.61 | Relative cell count to DMSO controls, Average 25 μM (cells (nuclei count)): 112.58 | Relative cell count to DMSO controls, Average 50 μM (cells (nuclei count)): 92.88 | Toxicity Data, Average, Mean (cells (nuclei count); Average of Exp 1-3, n 9, 1 uM): 123.69% | Toxicity Data, Average, Mean (cells (nuclei count); Average of Exp 1-3, n 9, 5 uM): 129.20% | Toxicity Data, Average, Mean (cells (nuclei count); Average of Exp 1-3, n 9, 10 uM): 125.61% | Toxicity Data, Average, Mean (cells (nuclei count); Average of Exp 1-3, n 9, 25 uM): 112.58% | Toxicity Data, Average, Mean (cells (nuclei count); Average of Exp 1-3, n 9, 50 uM): 92.88% | Relative cell count to DMSO controls, Average (for correlation analysis) (cells (nuclei count)): 116.79

COC(=O)c1csc(CN(CCN(C)C)Cc2ccsc2)c1 [SILCS31]
SARS2 antiviral activity (SARS2): decrease in activity | Percentage Infection Relative to Appropriate DMSO Control with Avg Background Subtraction (SARS2; [1]): 89.46% and 114.99% and 104.36% | Percentage Infection Relative to Appropriate DMSO Control with Avg Background Subtraction (SARS2; [2]): 96.46% and 105.10% and 110.06% | Percentage Infection Relative to Appropriate DMSO Control with Avg Background Subtraction (SARS2; [3]): 122.44% and 140.70% and 131.42% | Percentage Infection Relative to Appropriate DMSO Control with Avg Background Subtraction (SARS2; [4]): 64.20% and 68.29% and 61.79% | Percentage Infection Relative to Appropriate DMSO Control with Avg Background Subtraction (SARS2; [5]): 27.95% and 23.70% and 21.94% | Percentage Infection Relative to Appropriate DMSO Control with Avg Background Subtraction (SARS2; [6]): 99.50% and 100.31% and 97.32% | Percentage Infection Relative to Appropriate DMSO Control with Avg Background Subtraction (SARS2; [7]): 126.44% and 106.51% and 105.32% | Percentage Infection Relative to Appropriate DMSO Control with Avg Background Subtraction (SARS2; [8]): 115.31% and 105.13% and 102.55% | Percentage Infection Relative to Appropriate DMSO Control with Avg Background Subtraction (SARS2; [9]): 73.95% and 82.92% and 76.95% | Percentage Infection Relative to Appropriate DMSO Control with Avg Background Subtraction (SARS2; [10]): 19.41% and 19.72% and 23.27% | Percentage Infection Relative to Appropriate DMSO Control with Avg Background Subtraction (SARS2; Exp 3 (SMW478), 1 uM, Greiner Celigo plates): 90.68% and 87.75% and 89.34% | Percentage Infection Relative to Appropriate DMSO Control with Avg Background Subtraction (SARS2; Exp 3 (SMW478), 5 uM, Greiner Celigo plates): 64.83% and 79.11% and 61.06% | Percentage Infection Relative to Appropriate DMSO Control with Avg Background Subtraction (SARS2; Exp 3 (SMW478), 10 uM, Greiner Celigo plates): 63.55% and 89.71% and 51.99% | Percentage Infection Relative to Appropriate DMSO Control with Avg Background Subtraction (SARS2; Exp 3 (SMW478), 25 uM, Greiner Celigo plates): 86.74% and 80.23% and 76.86% | Percentage Infection Relative to Appropriate DMSO Control with Avg Background Subtraction (SARS2; Exp 3 (SMW478), 50 uM, Greiner Celigo plates): 26.23% and 18.61% and 22.87% | Percentage Inhibition Average 1 μM (SARS2): 2.92% | Screening data (Relative infection to DMSO controls) Average 1 μM (SARS2): 97.08 | Percentage Inhibition Average 5 μM (SARS2): 5.01% | Screening data (Relative infection to DMSO controls) Average 5 μM (SARS2): 94.99 | Percentage Inhibition Average 10 μM (SARS2): −2.53% | Screening data (Relative infection to DMSO controls) Average 10 μM (SARS2): 102.53 | Percentage Inhibition Average 25 μM (SARS2): 25.34% | Screening data (Relative infection to DMSO controls) Average 25 μM (SARS2): 74.66 | Percentage Inhibition Average 50 μM (SARS2): 77.37% | Screening data (Relative infection to DMSO controls) Average 50 μM (SARS2): 22.63 | Average (relative infection to DMSO over the 5 tested concentrations) (SARS2): 78.38 | Infection Data, Average, Mean (SARS2; [11]): 97.08% | Infection Data, Average, Mean (SARS2; [12]): 94.99% | Infection Data, Average, Mean (SARS2; [13]): 102.53% | Infection Data, Average, Mean (SARS2; [14]): 74.66% | Infection Data, Average, Mean (SARS2; [15]): 22.63% | Relative cell count to DMSO controls, Average 1 μM (cells (nuclei count)): 113.44 | Relative cell count to DMSO controls, Average 5 μM (cells (nuclei count)): 114.77 | Relative cell count to DMSO controls, Average 10 μM (cells (nuclei count)): 109.5 | Relative cell count to DMSO controls, Average 25 μM (cells (nuclei count)): 102.57 | Relative cell count to DMSO controls, Average 50 μM (cells (nuclei count)): 96.45 | Toxicity Data, Average, Mean (cells (nuclei count); [11]): 113.44% | Toxicity Data, Average, Mean (cells (nuclei count); [12]): 114.77% | Toxicity Data, Average, Mean (cells (nuclei count); [13]): 109.50% | Toxicity Data, Average, Mean (cells (nuclei count); [14]): 102.57% | Toxicity Data, Average, Mean (cells (nuclei count); [15]): 96.45% | Relative cell count to DMSO controls, Average (for correlation analysis) (cells (nuclei count)): 107.35

— patent publication US20240132484A1, “BROAD SPECTRUM ANTIVIRAL COMPOUNDS TARGETING THE SKI COMPLEX” (priority 2020, published 2024)
